According to the NIST ThermoML archive (doi:10.1016/j.tca.2004.08.013):

How the values were obtained:
[1] = xn = mol fraction of the nth substance listed; conditions: 101.3 kPa, Liquid
[2] = 101.33 kPa, Liquid

CCN(CC)CC [triethylamine] + O=[N+]([O-])c1ccccc1
[1], 303.15 K
Conditions	mass density [kg/m3]	viscosity [mPa·s]
x1 = 0.0113	1186.81	1.59
x1 = 0.0201	1181.7	1.569
x1 = 0.0288	1176.68	1.547
x1 = 0.0404	1169.97	1.521
x1 = 0.0506	1164.25	1.499
x1 = 0.0601	1158.7	1.48
x1 = 0.0688	1153.74	1.466
x1 = 0.0819	1146.33	1.44
x1 = 0.091	1141.21	1.422
x1 = 0.1005	1136.48	1.407

CCCN [propan-1-amine]
[2]
Conditions	mass density [kg/m3]	viscosity [mPa·s]
303.15 K	706.1	0.353
313.15 K	696.04	0.313

ClC(Cl)Cl [trichloromethane]
[2]
Conditions	mass density [kg/m3]	viscosity [mPa·s]
303.15 K	1470.64	0.52
313.15 K	1448.43	0.471

CCCN(CCC)CCC [tripropylamine] + ClC(Cl)Cl
[1]
Conditions	mass density, 303.15 K [kg/m3]	mass density, 313.15 K [kg/m3]	viscosity, 303.15 K [mPa·s]	viscosity, 313.15 K [mPa·s]
x1 = 0.0106	1453.58	1431.77	0.531	0.476
x1 = 0.0206	1437.45	1416.02	0.541	0.48
x1 = 0.032	1419.7	1398.73	0.546	0.485
x1 = 0.0396	1407.99	1387.54	0.554	0.489
x1 = 0.0509	1391.16	1370.93	0.563	0.493
x1 = 0.0596	1378.63	1358.79	0.568	0.501
x1 = 0.0693	1364.78	1345.21	0.579	0.504
x1 = 0.0787	1351.78	1332.44	0.59	0.511
x1 = 0.0883	1338.63	1319.39	0.598	0.516
